Here are results for four molecules from patent US6372790B1, “Pharmaceutical composition comprising a combination of metformin and fibrate, and its use for the preparation of medicines intended to reduce hyperglycaemia” (Merck Patent Gesellschaft mit beschrankter Haftung, priority 1998, dated 2002).

Molecules are shown by their SMILES.

This experiment deals with NIDD STZ rats. In words: Streptozotocin-induced non-insulin-dependent diabetes (NIDD) rat model: glycaemia, cholesterol, triglycerides. The class given is in vivo, male Wistar rats. Conditions: for Cholesterol / Glycaemia / Triglycerides: STZ (45 mg/kg) diabetic male Wistar rats, oral treatment at the doses in Table 1, measured 23 days after STZ, mean ± SEM, 10 rats per group. The protocol: Non-insulin-dependent diabetes (NIDD) is induced by injecting streptozotocin into male wistar rats. […] The procedure followed is as follows. […] Two weeks after this treatment, blood is taken and the glycaemia is measured. […] The animals then receive, orally, either metformin alone, or a fibrate alone, or a combination of the two in the doses indicated in Table 1 below. 23 days after the injection of streptozotocin, the animals are sacrificed and the following parameters are determined: glycaemia, cholesterol and triglycerides. […] The Student t test is carried out to evaluate the significance of the results obtained.

With `CC(C)(Oc1ccc(CCNC(=O)c2ccc(Cl)cc2)cc1)C(=O)O` [Bezafibrate, bezafibrate], the Cholesterol was 0.52 ± 0.05 g/L, the Glycaemia was 2.20 ± 0.21 g/L and the Triglycerides was 0.81 ± 0.11 g/L. Further, the Glycaemia (listed as bezafibrate) was 2.20 g/L.

As to `CCOC(=O)C(C)(C)Oc1ccc(Cl)cc1` [Clofibrate, clofibrate], the Cholesterol was 0.63 ± 0.03 g/L, the Glycaemia was 2.58 ± 0.11 g/L and the Triglycerides came to 0.93 ± 0.11 g/L.

In the case of `CC(C)OC(=O)C(C)(C)Oc1ccc(C(=O)c2ccc(Cl)cc2)cc1` [Fenofibrate, fenofibrate], the Cholesterol was 0.45 ± 0.02 g/L and the Triglycerides is 0.61 ± 0.10 g/L.

For the molecule `CN(C)C(=N)N=C(N)N` [Metformin, metformin], the Cholesterol is 0.61 ± 0.03 g/L, the Glycaemia was 1.74 ± 0.14 g/L and the Triglycerides came to 0.85 ± 0.10 g/L. In addition, for the setting “listed as metformin”, the Glycaemia amounted to 1.74 g/L. Besides, under “metformin alone, in animals, such as in man”, the “Effects on the levels of cholesterol and of triglycerides when administered alone” value was “effects on decreasing the levels of cholesterol and of triglycerides”.
